Tests used:
Bruch's membrane = Bruch's membrane thickness at the temporal outer macula by electron microscopy, macaque study; assay type: in vivo, Macaca fascicularis
Experimental: (§1) The macaque study was conducted according to accepted guidelines.
Lipid deposition in the Bruch's membrane contributes to thickening of the BrM. Bruch's membrane thickness was measured at the temporal outer macula of enucleated eyes examined by electron microscopy post-mortem.

[1] = test system: neutral lipids in and on the Bruch's membrane; assay: Oil red O (ORO) staining of neutral lipids in Bruch's membrane, macaque study; assay type: in vivo, Macaca fascicularis; details: eyes injected with L-4F vs eyes injected with placebo (scrambled L-4F); 6 monthly intravitreal injections, total 625 μg; after 6 months
Experimental: as §1
For staining with oil red O (ORO), specimens were treated with a 0.3% oil red O (Sigma-Aldrich Biochemie GmbH, Hamburg, Germany) solution (in 99% isopropanol) for 30 min at room temperature (RT), followed by immersion in a 60% isopropanol solution for 12 min. After the specimens were washed with deionized water for 3 min, counter-staining was conducted with hematoxylin (Carl Roth GmbH, Karlsruhe, Germany). The specimens were then mounted with mounting solution (Aquatex from Merck Millipore, Darmstadt, Germany), covered with a glass cover slip (Menzel-Graeser GmbH), and examined using a fully automated inverted light microscope for life science (DMI 6000 from Leica Microsystems Wetzlar, Germany). Image analysis was performed by grading the intensity of ORO staining (red color) of the Bruch's membrane (BrM) with scores ranging from 0 to 4, according to a qualitative evaluation assessed in four different regions in two separate slices from each eye (a total of 8 different regions from each eye). Qualitative ORO staining scores at the BrM and the choroid: 0=no staining; 1=+; 2=++; 3=+++; 4=++++.

[2] = test system: high-sensitivity C-reactive protein (hsCRP); details: cynomolgus monkey, in vivo
Experimental: The macaque study was conducted according to accepted guidelines. […] One eye per animal received 6 monthly injections of the same escalating dosages of L-4F or scrambled L-4F (total of 625 μg) in a 50 μL volume. The second eye per animal was not injected and was just observed.
Clinical laboratory tests including serology, hemograms and liver enzymes were conducted, and ophthalmic examinations were also performed, including fundus photographs, optical coherence tomography (OCT), intraocular pressure testing and blood sampling. After 7 months, all animals were sacrificed and eyes were immediately prepared for histology.
Circulating hsCRP, which is mainly produced in the liver, is a non-specific marker for systemic inflammation.

[3] = test system: complement factor D (CFD); assay: Immunohistochemistry of complement factor D, macaque study; assay type: in vivo, Macaca fascicularis; details: eyes injected with L-4F vs eyes injected with the scrambled peptide; 6 monthly intravitreal injections
Experimental: as §1
(§2) Assays for immunohistochemistry of the membrane attack complex (MAC, C5b-9) and complement factor D (CFD) were performed identically except for employment of monoclonal antibodies specific for each complement component. Specimens were treated with 10 μg/mL protease K (Sigma-Aldrich Biochemie GmbH, Hamburg, Germany) in PBS for antigen retrieval for 30 min at RT. Subsequently the sections were blocked with a solution of goat serum (5% goat serum, 0.3% Triton X-100 in PBS) for 60 min at RT. The specimens were then reacted with a first antibody against either C5b-9 (diluted 1:30 in PBS, mouse monoclonal antibody, Dako Deutschland GmbH, Hamburg, Germany) or complement factor D (diluted 1:200 in PBS, mouse monoclonal antibody, Santa Cruz Biotechnology, Dallas, Tex., USA) overnight at 4° C. […] Fluorescence microscopy was conducted using an inverted fluorescence microscope (DMI 6000 from Leica Microsystems, Wetzlar, Germany) and a filter set for λex/λem=470 nm/525 nm. For the semiquantitative analysis of fluorescence intensity of C5b-9, 3-5 different regions in one slide were analyzed for 3 different slides from each eye (a total of 9-15 different regions from each eye). For the semiquantitative analysis of fluorescence intensity of complement factor D, 3 distinct regions for each eye were evaluated.

[4] = test system: membrane attack complex (MAC, C5b-9); assay: Immunohistochemistry of membrane attack complex, macaque study; assay type: in vivo, Macaca fascicularis; details: eyes injected with L-4F vs eyes injected with the scrambled peptide; 6 monthly intravitreal injections
Experimental: as §1, §2

[5] = test system: esterified cholesterol in the Bruch's membrane; assay: Filipin staining of esterified cholesterol in Bruch's membrane, macaque study; assay type: in vivo, Macaca fascicularis; details: eyes injected with L-4F vs placebo-injected eyes; 6 monthly intravitreal injections
Experimental: as §1
For staining with filipin, specimens were washed once with deionized water for 5 min and then treated with 70% ethanol for 45 min. After being washed with deionized water for 5 min, the specimens were treated with cholesterol esterase (8.12 units/mL) diluted in 0.1 M potassium phosphate buffer (PPB, pH 7.4) for 3.5 hr at 37° C. The specimens were then washed sequentially with PPB and with phosphate buffered saline (PBS) twice for 3 min, followed by a wash with cold (4° C.) PBS overnight. Filipin staining was then performed with 250 μg/mL filipin (Sigma-Aldrich Biochemie GmbH, Hamburg, Germany), diluted in N,N-dimethylformamide (Merck Millipore, Darmstadt, Germany), for 60 min at RT with light shielding. The specimens were then washed sequentially with PBS and deionized water, mounted with a mounting solution (Mowiol®, Carl Roth GmbH, Karlsruhe, Germany), covered with a glass cover slip, and examined using an inverted fluorescence microscope (DMI 6000 from Leica Microsystems, Wetzlar, Germany). Filipin fluorescence was observed using a UV filter set (λex/λem=350 nm/455 nm). […] Semiquantitative analysis of fluorescence intensity of filipin at three separate regions of the BrM was done on three different slides from the same eye (a total of 9 different regions from each eye).

[6] = test system: geriatric macaques with naturally occurring age-related maculopathy; assay: Macaque study of age-related maculopathy: fellow-eye effects and tolerability; assay type: in vivo; details: 6 monthly intravitreal injections, all macaques
Experimental: as §1

[7] = in vivo; cited from earlier work
geographic atrophy = details: monthly intravitreal injections of 10 mg for 18 months, cited from earlier work

Substance: Ac-DWFKAFYDKVAEKFKEAF-NH2 [L-4F, Ac-DWFKAFYDKVAEKFKEAF-NH2 acetate salt (SEQ. ID. NO. 13)]
- reduction of BrM thickness (Bruch's membrane; eyes injected with L-4F vs eyes injected with placebo): about 24%
- BrM thickness at the temporal outer macula (Bruch's membrane; injected eyes, electron microscopy post-mortem, mean ± SE): 1.31 μm
- reduction of lipid deposits from the BrM (oil red O staining) [1]: about 56%
- blood level of hsCRP [2]: did not increase
- decreased level of complement factor D (fluorescence intensity, semiquantitative) [3]: about 41%
- decreased level of MAC (C5b-9) in the BrM and the choriocapillaris (fluorescence intensity, semiquantitative) [4]: about 58%
- reduction of esterified cholesterol in the BrM (filipin fluorescence, semiquantitative) [5]: about 68%
- tolerability (significant adverse event or side effect) [6]: well tolerated

Substance: aflibercept: soluble fusion protein containing one or more extracellular domains of one or more VEGFRs; anti-VEGF agent
- intravitreal half-life [7]: about 9.0 days

Substance: bevacizumab: anti-VEGF antibody or fragment thereof
- intravitreal half-life [7]: about 9.8 days

Substance: lampalizumab: antigen-binding fragment (Fab) of a humanized monoclonal antibody targeting complement factor D (CFD)
- reduction in the area of geographic atrophy in the injected eye (geographic atrophy; fundus autofluorescence, vs placebo): about 20%
- reduction in the area of geographic atrophy, subgroup positive for the CFI biomarker (geographic atrophy): about 44%

Substance: ranibizumab: anti-VEGF antibody or fragment thereof
- intravitreal half-life [7]: about 7.1 days
